Earlier results on one compound are cited in patent EP3277282B1 (Istanbul Universitesi Rektorlugu, priority 2015, dated 2016).

For series [1] the following is noted: given to human by oral route.

Turning to `Cc1nc(Nc2ncc(C(=O)Nc3c(C)cccc3Cl)s2)cc(N2CCN(CCO)CC2)n1` [Dasatinib, N-(2-chloro-6-methylphenyl)-2-[[6-[4-(2-hydroxyethyl)-1-piperazinyl]-2-methyl]-4-pyrimidinyl]amino]-5-thiazolecarboxamide mono-hydrate], the “solubility in ethanol, methanol and organic solvents” value was “soluble”. Also, in series [1], the systemic side effects result was “bleeding in the intestines”.
